The values that follow are results of earlier work, collected in patent publication US10098898B1, “Release stable mesalamine dosage forms” (Handa Pharmaceuticals, LLC, priority 2017, dated 2018).

The conditions of the data set: 1% aqueous solution.

Turning to `O=P([O-])([O-])O.[Na+].[Na+]` [disodium hydrogen phosphate], the pH result was “about 9.1”.
